Experiments:
Format in all cases: in vivo, Sprague-Dawley rats
[1] = tested on: dry eye in the Alacrimal Rat Model; experiment: Alacrimal rat dry eye model: clinical examination by biomicroscopy, corneal opacity score; details: for Corneal scores compared to sham: 100 μM topical 4 times a day, days 3 and 7
Method: (§1) Dry eye was induced in the left eye of Sprague-Dawley rats by removal of the extraorbital lacrimal gland. […] Topical administration of test compounds was initiated 2 weeks after surgery, given 4 times a day and continued for 24 days. Sham rats (n=6) were untreated. Alacrimal rats (n=6 each) were dosed bilaterally with 10 μL of phosphate buffered saline (PBS), or 100 μM of either of two MARCKS inhibitors: BIO-11006 [high molecular weight] or BIO-91201 [lower molecular weight]. The efficacy of these MARCKS inhibitor peptides was assessed via clinical examination using biomicroscopy and phenol red test (PRT) tear volume with the observers masked to the treatments. Examinations were at baseline, 2 weeks after surgery, and on days 1, 3, 7, 14, 21, and 24 after initiating dosing. Clinical scores for corneal opacity, vascularization, and corneal fluorescein (FL) retention were recorded at each examination.
Corneal scores were assessed as in the table below.

[2] = tested on: dry eye in the Alacrimal Rat Model; experiment: Alacrimal rat dry eye model: corneal fluorescein (FL) retention score; details: 100 μM topical 4 times a day
Method: as §1
PRT was higher in MARCKs inhibitor-dosed groups compared to PBS groups on days 14, 21, and 24 after surgery (p<0.02; t test). Fluorescein retention score was measured as shown in the table below, and the scores and statistical analyses are provided in FIG. 2.
Fluorescein retention scores.

[3] = tested on: dry eye in the Alacrimal Rat Model; experiment: Alacrimal rat dry eye model: phenol red test (PRT) tear volume; details: overall conclusion of the study; 100 μM topical
Method: as §1
FIG. 3 provides the results of the phenol red test (PRT), showing tear measurement in mm/20 s averaged for each group.

Substance | Corneal scores compared to sham [1] | corneal opacity scores ([1]; 100 μM, 10 μL topical 4 times a day for 24 days, relative to PBS and BIO-11006 dosed groups) | effect on indicators of dry eye disease including corneal scores and corneal fluorescein retention ([1]; overall conclusion of the study, 100 μM topical) | FL retention scores versus sham eyes ([2]; through day 14) | corneal fluorescein (FL) retention ([2]; versus PBS or BIO-11006 dosed eyes, p<0.02) | tear production [3]
Ac-AKGE-OH [BIO-91201] | no difference between sham and BIO-91201 | reduced corneal opacity scores relative to the PBS and BIO-11006 dosed groups | significant positive effect | not significantly different than sham eyes | significantly lower FL retention than PBS or BIO-11006 dosed eyes | improvement in tear production
BIO-11006: N-terminal acetylated peptide of SEQ ID NO 106 (GAQFSKTAAK), free C-terminus; MARCKS inhibitor, high molecular weight (Ac-GAQFSKTAAK-OH) | significantly elevated | – | – | – | – | –

Reference: patent publication US20250161403A1, “PEPTIDES AND METHODS OF USE THEREOF IN TREATING OCULAR DISORDERS” (Biomarck Pharmaceuticals, Ltd., priority 2022, published 2025)
